From patent US8148367B2 (Takeda Pharmaceutical Company Limited, priority 2008, dated 2012)

Target: T1, Recombinant human renin (Homo sapiens, UniProt P00797)
T1 construct: isolate the active form (residues 67-406); made in house; host or cells: FreeStyle 293-F cells, transient expression of pcDNA3.1(+)/hREN
T1 sequence (P00797 67-406): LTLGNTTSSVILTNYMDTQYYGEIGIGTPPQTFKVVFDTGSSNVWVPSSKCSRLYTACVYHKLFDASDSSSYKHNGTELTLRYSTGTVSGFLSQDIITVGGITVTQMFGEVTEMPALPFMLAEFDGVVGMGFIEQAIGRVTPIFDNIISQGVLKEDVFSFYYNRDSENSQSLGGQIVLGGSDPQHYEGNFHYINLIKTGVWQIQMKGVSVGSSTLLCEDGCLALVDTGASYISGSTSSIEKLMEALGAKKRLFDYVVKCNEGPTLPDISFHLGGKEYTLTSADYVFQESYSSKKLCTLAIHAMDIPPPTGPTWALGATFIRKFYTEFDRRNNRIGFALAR
Test: In vitro enzymatic activity assay of renin inhibitors (fluorescence, QXL520/HiLyteFluo488 peptide substrate)
Format: biochemical
Details: recombinant human renin 3 nM, 1 μM substrate, pre-incubated 10 minutes at 37° C., incubation one hour, pH 7.4, 5% DMSO; read-out: IC50 of Exemplified Compounds Against Renin

IC50: < 100 nM
SMILES: O=C(c1[nH]c(=O)n([C@H]2CCCC[C@@H]2O)c1-c1ccccc1)N1CCNC[C@H]1Cc1ccccc1 [Example 126, 4-((R)-2-Benzylpiperazine-1-carbonyl)-1-((1S,2S)-2-hydroxycyclohexyl)-5-phenyl-1H-imidazol-2(3H)-one]
